Assay [1] concerns C57Bl/6J mice. The assay is described as follows: Forced Swimming Test (FST) in naive mice. In kind it is in vivo. The following applies: acute i.c.v., 50 ng/kg (FIG. 9B), 30 minutes.
Another assay deals with T1, TREK-1 channels (Homo sapiens, UniProt O95069).
T1 construct: expressed in transfected cells
T1 sequence (O95069 1-426): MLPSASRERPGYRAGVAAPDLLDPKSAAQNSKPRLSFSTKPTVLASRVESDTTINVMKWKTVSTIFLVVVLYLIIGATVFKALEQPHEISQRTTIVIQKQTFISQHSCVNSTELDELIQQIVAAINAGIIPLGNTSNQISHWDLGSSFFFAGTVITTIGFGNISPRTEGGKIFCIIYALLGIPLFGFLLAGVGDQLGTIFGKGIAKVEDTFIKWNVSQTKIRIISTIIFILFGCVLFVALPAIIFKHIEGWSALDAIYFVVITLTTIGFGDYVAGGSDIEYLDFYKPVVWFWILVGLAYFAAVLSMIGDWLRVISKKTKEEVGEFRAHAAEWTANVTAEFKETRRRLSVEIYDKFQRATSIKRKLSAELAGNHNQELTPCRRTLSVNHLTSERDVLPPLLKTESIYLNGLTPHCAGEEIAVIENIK
In words: TREK-1 current inhibition, whole cell patch clamp on h-TREK-1/HEK cell line. In kind it is cell-based. As to the method: The human-TREK-1/HEK293 cell line (h-TREK-1/HEK) (Moha ou Maati, H. et al. (2011). PloS one, 6 (10), e25602) and HEK-IKS cell line (Ducroq, J. et al, (2010) Br J Pharmacol, 159(1):93-101) were grown in the presence of 0.5 mg/mL G418 in Dulbecco's modified Eagle's medium supplemented with 10% (v/v) heat inactivated fetal bovine serum containing 1% (v/v) penicillin/streptomycin in an atmosphere of 95% air/5% CO2.
All electrophysiological experiments were performed on h-TREK-1/HEK cells seeded at a density of 20 000 cells/35-mm dish after 2-6 days of culture. All electrophysiological recordings were performed in whole cell configuration of the patch clamp technique. Each current was evaluated by using a RK 400 patch clamp amplifier (Axon Instrument, USA), low-pass filtered at 3 kHz and digitized at 10 kHz using a 12-bit analog-to-digital converter digidata (1322 series, Axon Instrument, USA). All current amplitudes are expressed in current densities. Results were expressed as mean±standard error of the mean (SEM). […] The bath solution contained 150 mM NaCl, 5 mM KCl, 3 mM MgCl2, 1 mM CaCl2 and 10 mM HEPES adjusted to pH 7.4 with NaOH. The pipette solution contained 155 mM KCl, 3 mM MgCl2, 5 mM EGTA and 10 mM HEPES adjusted to pH 7.2 with KOH. TREK-1 currents were evaluated in the presence of a cocktail of potassium channel inhibitors (K+ blockers: 3 mM 4-aminopyridine (4-AP), 10 mM tetraethylammonium (TEA), 10 μM glibenclamide, 100 nM apamin and 50 nM charybdotoxin). All experiments were performed at room temperature (21-22° c.). Stimulation protocols and data acquisition were carried out using a microcomputer (Dell Pentium) with a commercial software and hardware (pClamp 8.2). Currents were recorded by voltage clamp steps to membrane potentials of −100 to +60 mV in 20 mV steps applied from a holding potential of −80 mV. Duration of depolarization pulses were […], and the pulse cycling rate was 5 sec. TREK-1 current amplitudes were evaluated at the end of the stimulation pulses. Cells were continuously superfused with a microperfusion system. Inhibitory effects of spadin and analogs were performed on arachidonic acid pre-activated TREK-1 currents. Spadin and analogs were tested at the unique dose of 100 nM. For both Analog 3 (SEQ ID:4) and Analog 8 (SEQ ID:9) concentration-dependant inhibitions were performed by applying concentrations ranging between 1 nM to 1 μM. IKS currents were activated by voltage clamp steps of membrane potentials from −100 to +100 mV in 20 mV steps applied from a holding potential of −80 mV. Tail currents were generated by repolarization to −40 mV. Duration of both depolarization and repolarization pulses were 2.4 s, and the pulse cycling rate was 10 s. IKR currents were activated by voltage clamp steps of membrane potentials from −100 to +100 mV in 10 mV steps applied from a holding potential of […] and tail currents were generated by a repolarization to […]. Duration of both depolarization and repolarization pulses were 1 s, and the pulse cycling rate was 5 s. The amplitudes of IKS and IKR currents were calculated at both the end of the first pulse and the peak of the tail pulse.
Neuropharmacology 62, 278, (2012)) was used as reference.

A further assay deals with dogs. As to conditions: dogs with separation anxiety; cited from earlier work.
In assay [2] the target is T2, human two-pore domain potassium channel TREK-1 (Homo sapiens, UniProt O95069).
T2 sequence (O95069 1-426): T1 sequence (O95069 1-426)
As to conditions: Kennard et al; cited from earlier work.

For assay [3], the system named is C57Bl/6J mice. In words: Forced Swimming Test (FST) in naive mice. In kind it is in vivo. As to the method:
Naïve male C57Bl/6J mice from 7 to 9 weeks old were used in all experiments (Janvier laboratory). Mice were housed 10 animals per cage under a 12-h light/12-h dark cycle (light on at 8:00 am), in a ventilated room at a temperature of 22±1° C. Animals had free access to water and food (A03; SAFE, Augy, France). All experiments were conducted according to policies on the care and use of laboratory animals of the Society for Neuroscience, and also with respect to national laws on animal use. The local Ethics Committee (CIEPAL) approved the experiments.
(§1) Stock solutions were prepared of 2 mg/mL (10^-3M) in distilled water, and before injection spadin solution was diluted in NaCl 0.9% to obtain the different concentrations used for treatments. Corticosterone (Sigma-Aldrich, France) was dissolved in drinking water at the concentration of 3.5 mg/L in the presence of 4.5 g/L of beta-cyclodextrin. […] Fluoxetine (Sigma-Aldrich, France) was dissolved in drinking water at the dose of 80 mg/L and administered during 21 days. For i.p. administration, fluoxetine (TEVA Santé, France) was dissolved in NaCl 0.9% at a concentration of 0.75 mg/mL. The amount injected was 3 mg/kg. Spadin and analogues were administered by i.v. injection. For acute treatment, drugs were administered in a single 100 μL bolus 30 min prior to the beginning of the behavioral tests. For subchronic treatment drugs were injected during 4 consecutive days and behavioral tests were performed on day 5, without additional injection.
The animals were individually placed in a non-escapable cylinder (height 30 cm, diameter 15 cm) filled with 15 cm-water at 22±1° C. The trial was conducted for 6 min. The total period of immobility was manually measured during the last 4 min of the test. A mouse was considered immobile when it remained floating with only slight movements to keep its head above water.

Assay [4] deals with C57Bl/6J mice. In words: Novelty Suppressed Feeding (NSF) test. As to conditions: 10 μg/kg i.v. daily for 4 days, test on day 5. The class given is in vivo. How it is done: as §1
The NSF paradigm is a two day test protocol. Day one, mice were deprived from food. Day two mice were placed in a highly brightly lit area, in a plastic box (45×45×20 cm), with a floor covered with wooden bedding. The test was carried out during a 10 min period; during this time the latency to eat was measured. During the test a single pellet of food was placed in the center of the box, on a white platform.

Assay [5] relates to dentate gyrus of the mouse hippocampus. The assay is described as follows: Hippocampal neurogenesis, BrdU-positive cell count. The class given is in vivo. As to conditions: 4 day treatment, 10 μg/kg i.v. How it is done:
One day after the injections of 5-bromo-2-deoxyuridine (BrdU), 12 mg per animal divided in four bolus of 100 μl injected every two hours with spadin or Analog 3 (SEQ ID NO:4) and Analog 8 (SEQ ID NO:9), mice were anesthetized with isoflurane and transcardially perfused with 20 mL of 0.9% NaCl followed by 20 mL paraformaldehyde in 4%/NaCl at a concentration of 0.9%. By using a vibratome (Leica) brains were cut in 40 μm sections, throughout the entire hippocampus. Eight slices, from bregma 3.3 to bregma 5.3, were retained to process the BrdU immunohistochemistry as previously described (Heurteaux, C. et al. Deletion of the background potassium channel TREK-1 results in a depression-resistant phenotype. Nat Neurosci 9, 1134, (2006)). For each BrdU labeling, slices were first incubated with a mouse monoclonal anti-BrdU antibody (1/8000, Becton Dinckinson). […]
It was previously shown that a 4-days subchronic treatment with spadin increased the hippocampal neurogenesis (Mazella, J. et al. Spadin, a sortilin-derived peptide, targeting rodent TREK-1 channels: a new concept in the antidepressant drug design. PLoS Biol 8, e1000355, (2010)). […] The neurogenesis in the dentate gyrus of the mouse hippocampus was analyzed by counting the number of progenitor cells that incorporated the DNA synthesis marker 5-bromo-2′deoxyuridine (BrdU).

pIC50: −log10 of the molar value. Square brackets hold non-standard residues; d marks the D form. Ends that are not written are not given here. Peptide text beside a SMILES is read from it.

Broadly, the pIC50 is −log10 of the IC50, conventionally taken in molar units. Lower therefore signals a high IC50.

`CC[C@@H](C)[C@H]1NC(=O)CNC(=O)[C@@H](C(C)C)NC(=O)[C@@H](CO)NC(=O)[C@@H](Cc2c[nH]c3ccccc23)NC(=O)CNC(=O)[C@@H](CC(C)C)NC(=O)[C@@H](CCCNC(=N)N)NC(=O)[C@@H](C)NC(=O)[C@H]2CCCN2C(=O)[C@@H](CC(C)C)NC(=O)[C@H]2CCCN2C(=O)[C@@H](CCCNC(=N)N)NC(=O)[C@@H](Cc2c[nH]c3ccccc23)NC(=O)[C@@H](CO)NC(=O)CNC(=O)[C@H]2CCCN2C1=O` [Analog 15, c(rlGwsvGipGswrplpa)] (cyclo([dR][dL]G[dW][dS][dV]G[dI][dP]G[dS][dW][dR][dP][dL][dP][dA])): the “activity in FST after i.c.v. injection” value in the assay on C57Bl/6J mice [1] is recorded as “active”. In addition, the “blockade effect on TREK-1 channel activity compared to spadin” value at TREK-1 channels (100 nM, n=10 to 12) is recorded as “increased blockade effect”. The compound further had a pIC50 at TREK-1 channels (h-TREK-1/HEK cells, measured at 0 mV (FIG. 8F)) of 10.40.
As to `CNCCC(Oc1ccc(C(F)(F)F)cc1)c1ccccc1` (stereo not shown) [fluoxetine], the “dogs less depressive as indicated by better behavior” value in the assay on dogs is listed as 73%. The “effect on human TREK-1 channel” value in assay [2] is “inhibit”.
On to “APLPRWSGPIGVSWGLR [spadin, APLPRWSGPIGVSWGLR]”, for which the “immobility time, FST, acute treatment” value in the assay with C57Bl/6J mice [3] (10 μg/kg acute i.v., measured 30 minutes after injection, n=10) turned out to be 107.40 ± 5.05 s. Moreover, the “immobility time, FST, subchronic treatment” value in the assay on C57Bl/6J mice [3] (10 μg/kg i.v. once a day for 4 days, test on day 5) is 123.70 ± 7.16 s. Besides, the “time of immobility, FST time course” value in the assay with C57Bl/6J mice [3] (3 h after injection (order of listing)) amounted to 113.2 ± 5.0 s; in the assay with C57Bl/6J mice [3] (7 h after injection (order of listing)), 150.8 ± 6.5 s; in the assay with C57Bl/6J mice [3] (17 h after injection (order of listing)) it was 175.3 ± 7.5 s; in the assay on C57Bl/6J mice [3] (first (initial) time point after injection, time not given) it was 102.4 ± 6.2 s. Also, the “remaining efficiency, % of the initial efficacy, FST” value worked out at 84% in the assay on C57Bl/6J mice [3] (3 h after the injection) and 30% in the assay on C57Bl/6J mice [3] (seven hours after the injection). Further, the “reduction of immobility times, FST” value in the assay on C57Bl/6J mice [3] (after 17 h) is recorded as “no reduction in the immobility times”. Moreover, the “latency to feed, NSF” value in the assay on C57Bl/6J mice [4] was 151.11 ± 17.70 s. In addition, in assay [5], the “number of BrdU-positive cells in the subgranular zone compared to saline” value is recorded as “significantly increased”.

These data come from patent US10251937B2, “Retro-inverso analogs of spadin display increased antidepressant effects” (MEDINCELL, priority 2014, dated 2019).
